{
  "source": "patent US20220000964A1",
  "about": "“Compositions and Methods for Regulating Homeostasis of Chondrocytes, Extracellular Matrix, Articular Cartilage, and Phenotype of Arthritis” (Unigen, Inc., priority 2020, published 2022)",
  "key": {"CIA rats [1]": {"test_system": "CIA rats", "test": "Collagen-induced arthritis (CIA) rats, arthritis severity index", "type": "in vivo, rat", "details": "for % Inhibition Arthritis index (AUC): vs CIA + vehicle", "quoted_text": "Male Sprague Dawley rats (7-8 weeks old, n=40) were purchased from Charles River Laboratories Inc. (Wilmington, Mass., USA) and acclimated upon arrival for two weeks before being assigned randomly to their respective treatment groups: G1=Normal control (−) (n=10/group), G2=collagen-induced arthritis (CIA)+Vehicle (0.5% Carboxy Methylcellulose) (n=10/group), G3=CIA+Methotrexate (+) (75 μg/kg) (n=10/group), and G4=CIA+AMK (+) (200 mg/kg) (n=10/group). Treatment was initiated two weeks before model induction and lasted for an additional three weeks thereafter. Collagen type-II (Lot #845) from bovine nasal septum and Incomplete Freund's adjuvant (IFA) (Lot #SLBR0642v) were purchased from Elastin Products Company (Owensville, Mich., USA) and Sigma (St. Louise, Mo., USA), respectively. All materials were kept at suitable temperatures as recommended by the manufacturer. At the time of preparation, 60 mg of collagen was weighed and added to pre-chilled 15 mL 0.1 M acetic acid in a 60 mL-sized flask with a magnetic stirrer to yield 4 mg/mL concentration (Brand, et al., 2003; Rosloniec et al., 2001).\nThe mixture was dissolved by gently stirring overnight at 4° C. The next morning, the dissolved collagen was emulsified with equal volume of IFA (15 mL) to achieve a final concentration of 2 mg/mL collagen. Rats sedated with isoflurane were then primed intradermally with 400 μL of the emulsified collagen at the base of their tail at two sites using a 1 mL syringe fitted with a 26 G needle. The dissolved mixture was kept in an ice bucket and stirred between groups at the time of injection to preserve uniform consistency. On the seventh day, rats were inoculated with a booster dose of 2 mg/mL type II collagen emulsified with equal volume of incomplete adjuvant at 100 μL/rat/site.\nLinear trapezoid rule was used to calculate area under the curve (AUC) for days 9-21. % Inhibition={(Mean value of treatment-mean value of CIA+)/(Mean value of control-mean value of CIA)}*100.\nMale Sprague Dawley rats (7-8 weeks old, n=40) were purchased from Charles River Laboratories Inc. (Wilmington, Mass., USA) and acclimated upon arrival for two weeks before being assigned randomly to their respective treatment groups: G1=Normal control (−) (n=10/group), G2=collagen-induced arthritis (CIA)+Vehicle (0.5% Carboxy Methylcellulose) (n=10/group), G3=CIA+Methotrexate (+) (0.5 mg/kg) (n=10/group), and G4=CIA+AP (+) (200 mg/kg) (n=10/group). Treatment was initiated two weeks before model induction and lasted for an additional three weeks thereafter. Collagen type-II (Lot #845) from bovine nasal septum and Incomplete Freund's adjuvant (IFA) (Lot #SLBR0642v) were purchased from Elastin Products Company (Owensville, Mich., USA) and Sigma (St. Louise, Mo., USA), respectively. All materials were kept at suitable temperatures as recommended by the manufacturer. At the time of preparation, 60 mg of collagen was weighed and added to pre-chilled 15 mL 0.1 M acetic acid in a 60 mL-sized flask with a magnetic stirrer to yield 4 mg/mL concentration (Brand, et al., 2003; Rosloniec et al., 2001). The mixture was dissolved by gently stirring overnight at 4° C. The next morning, the dissolved collagen was emulsified with equal volume of IFA (15 mL) to achieve a final concentration of 2 mg/mL collagen."}, "CIA rats [2]": {"test_system": "CIA rats", "test": "CIA rats, compression-induced pain (Randall-Salitto)", "type": "in vivo, rat", "protocol": "Clinical findings such as arthritis severity index, paw thickness, ankle diameter (using Digital Absolute, Model #PK-0505CPX, Mitutoyo Corporation, Kawasaki, Japan), and pain sensitivity (using Randall Salitto, IITC Life Science Inc., Woodland Hills, Calif., USA) were monitored during the course of study. Urine was collected from overnight fasted rats using metabolic cages after three weeks of treatment post-model induction. At Necropsy, serum from the cardiac and synovial lavage (100 μL of saline was injected into the articular cavity and aspirated back to the syringe) for biomarkers and ankle joint for histopathology were collected from each animal.\nResponse to pressure as a measure of pain sensitivity was assessed using the Randall-Salitto probe attached to an electronic monitor on priming day, boost day, and days 12, 14, 16, 19, and 21. Both the left and right hind legs were monitored on those days and their average was used for data analysis. Changes from the vehicle-treated CIA rats have been reported as pain tolerance on those days.\nResponse to pressure as a measure of pain sensitivity was measured using the Randall-Salitto probe attached to an electronic monitor on priming day, boost day, and days 12, 14, 16, 18 and 20. Both the left and right hind legs were monitored on those days and their averages were used for data analysis. Changes from the vehicle-treated CIA rats have been reported as pain tolerance on those days. […] This reduction in pain sensitivity was statistically significant at all time points as of day-12 for both groups when compared to vehicle-treated CIA rats (Table 43)."}, "[3]": {"details": "AP CIA study, Methotrexate 0.5 mg/kg, AP 200 mg/kg oral"}, "[4]": {"details": "Boost, MTX 0.5 mg/kg, AP 200 mg/kg"}, "[5]": {"details": "Day 12, MTX 0.5 mg/kg, AP 200 mg/kg"}, "[6]": {"details": "Day 14, MTX 0.5 mg/kg, AP 200 mg/kg"}, "[7]": {"details": "Day 16, MTX 0.5 mg/kg, AP 200 mg/kg"}, "[8]": {"details": "Day 20, MTX 0.5 mg/kg, AP 200 mg/kg"}},
  "note": "Values joined by “and” are separate entries in the source; they are usually repeats but may differ in a detail not shown here. Equal values may be shown once. Marks after values point to notes of the source that are not given here.",
  "data": [
    {"smiles": "CN(Cc1cnc2nc(N)nc(N)c2n1)c1ccc(C(=O)N[C@@H](CCC(=O)O)C(=O)O)cc1", "note": "[Methotrexate]", "values": [
      {"measurement": "percent reduction of area under the arthritis severity curve vs vehicle-treated CIA", "setting": "CIA rats [1]; AMK CIA study, MTX 75 μg/kg, AMK 200 mg/kg oral, AUC days 9-21", "result": "62.55% and 62.6%"},
      {"measurement": "AUC(d9-d21) (Mean ± SD) Arthritis index", "setting": "CIA rats [1]; AMK study, MTX 75 μg/kg, AMK 200 mg/kg", "result": "4.87 ± 0.21"},
      {"measurement": "average arthritis severity score at the end of the study", "setting": "CIA rats [1]; [3]", "result": "1.1±0.17"},
      {"measurement": "percent reduction of area under the arthritis severity curve vs vehicle-treated CIA", "setting": "CIA rats [1]; [3]", "result": 78.8, "unit": "%"},
      {"measurement": "AUC(d9-d21) (Mean ± SD) Arthritis index", "setting": "CIA rats [1]; AP study, MTX 0.5 mg/kg, AP 200 mg/kg", "result": "5.00 ± 0.48"},
      {"measurement": "Arthritis Index, Mean", "setting": "CIA rats [1]; [4]", "result": 0.00},
      {"measurement": "Arthritis Index, Mean", "setting": "CIA rats [1]; CIA, MTX 75 μg/kg, AMK 200 mg/kg oral, Boost", "result": 0.00},
      {"measurement": "Arthritis Index, Mean", "setting": "CIA rats [1]; CIA, MTX 75 μg/kg, AMK 200 mg/kg oral, Day 9", "result": 0.00},
      {"measurement": "Arthritis Index, Mean", "setting": "CIA rats [1]; CIA, MTX 75 μg/kg, AMK 200 mg/kg oral, Day 10", "result": 0.00},
      {"measurement": "Arthritis Index, Mean", "setting": "CIA rats [1]; CIA, MTX 75 μg/kg, AMK 200 mg/kg oral, Day 11", "result": 0.00},
      {"measurement": "Arthritis Index, Mean", "setting": "CIA rats [1]; CIA, MTX 75 μg/kg, AMK 200 mg/kg oral, Day 12", "result": "0.23*"},
      {"measurement": "Arthritis Index, Mean", "setting": "CIA rats [1]; CIA, MTX 75 μg/kg, AMK 200 mg/kg oral, Day 13", "result": "0.46^¥"},
      {"measurement": "Arthritis Index, Mean", "setting": "CIA rats [1]; CIA, MTX 75 μg/kg, AMK 200 mg/kg oral, Day 14", "result": "0.70^¥"},
      {"measurement": "Arthritis Index, Mean", "setting": "CIA rats [1]; CIA, MTX 75 μg/kg, AMK 200 mg/kg oral, Day 15", "result": "1.10^€"},
      {"measurement": "Arthritis Index, Mean", "setting": "CIA rats [1]; CIA, MTX 75 μg/kg, AMK 200 mg/kg oral, Day 16", "result": "1.50^€"},
      {"measurement": "Arthritis Index, Mean", "setting": "CIA rats [1]; CIA, MTX 75 μg/kg, AMK 200 mg/kg oral, Priming", "result": 0.00},
      {"measurement": "Arthritis Index, Mean", "setting": "CIA rats [1]; CIA, MTX 75 μg/kg, AMK 200 mg/kg oral, day 17", "result": "1.76^€"},
      {"measurement": "Arthritis Index, Mean", "setting": "CIA rats [1]; CIA, MTX 75 μg/kg, AMK 200 mg/kg oral, day 19", "result": "2.03^€"},
      {"measurement": "Arthritis Index, Mean", "setting": "CIA rats [1]; CIA, MTX 75 μg/kg, AMK 200 mg/kg oral, day 21 (end of study)", "result": "1.78±0.79"},
      {"measurement": "Arthritis Index, Mean", "setting": "CIA rats [1]; CIA, MTX 75 μg/kg, AMK 200 mg/kg oral, day 21 (end of study), listed as MTX", "result": "1.78^€"},
      {"measurement": "Arthritis Index, Mean", "setting": "CIA rats [1]; Day 10, MTX 0.5 mg/kg, AP 200 mg/kg", "result": 0},
      {"measurement": "Arthritis Index, Mean", "setting": "CIA rats [1]; Day 11, MTX 0.5 mg/kg, AP 200 mg/kg", "result": 0},
      {"measurement": "Arthritis Index, Mean", "setting": "CIA rats [1]; [5]", "result": "0.05**"},
      {"measurement": "Arthritis Index, Mean", "setting": "CIA rats [1]; Day 13, MTX 0.5 mg/kg, AP 200 mg/kg", "result": "0**"},
      {"measurement": "Arthritis Index, Mean", "setting": "CIA rats [1]; [6]", "result": "0**"},
      {"measurement": "Arthritis Index, Mean", "setting": "CIA rats [1]; Day 15, MTX 0.5 mg/kg, AP 200 mg/kg", "result": "0.35**"},
      {"measurement": "Arthritis Index, Mean", "setting": "CIA rats [1]; [7]", "result": "0.875**"},
      {"measurement": "Arthritis Index, Mean", "setting": "CIA rats [1]; Day 17, MTX 0.5 mg/kg, AP 200 mg/kg", "result": "1**"},
      {"measurement": "Arthritis Index, Mean", "setting": "CIA rats [1]; Day 19, MTX 0.5 mg/kg, AP 200 mg/kg", "result": "1.075**"},
      {"measurement": "Arthritis Index, Mean", "setting": "CIA rats [1]; [8]", "result": "1.1**"},
      {"measurement": "Arthritis Index, Mean", "setting": "CIA rats [1]; Priming, MTX 0.5 mg/kg, AP 200 mg/kg", "result": 0.00},
      {"measurement": "% Inhibition Arthritis index (AUC)", "setting": "CIA rats [1]; MTX 75 μg/kg, AMK 200 mg/kg", "result": 62.55, "unit": "%"},
      {"measurement": "% Inhibition Arthritis index (AUC)", "setting": "CIA rats [1]; MTX 0.5 mg/kg, AP 200 mg/kg", "result": 78.78, "unit": "%"},
      {"measurement": "pain tolerance improvement vs vehicle-treated CIA", "setting": "CIA rats [2]; AP CIA study, Methotrexate 0.5 mg/kg, day 20", "result": 69.4, "unit": "%"},
      {"measurement": "range of reduction in pain sensitivity vs vehicle treated CIA rats", "setting": "CIA rats [2]; AP CIA study, days 12-20", "result": "8.39-69.4%"},
      {"measurement": "Compression pain resistance vs CIA + vehicle (Mean ± SD)", "setting": "CIA rats [2]; [4]", "result": "−1.50", "unit": "%"},
      {"measurement": "Compression pain resistance vs CIA + vehicle (Mean ± SD)", "setting": "CIA rats [2]; [5]", "result": 8.39, "unit": "%"},
      {"measurement": "Compression pain resistance vs CIA + vehicle (Mean ± SD)", "setting": "CIA rats [2]; [6]", "result": 27.30, "unit": "%"},
      {"measurement": "Compression pain resistance vs CIA + vehicle (Mean ± SD)", "setting": "CIA rats [2]; [7]", "result": 54.31, "unit": "%"},
      {"measurement": "Compression pain resistance vs CIA + vehicle (Mean ± SD)", "setting": "CIA rats [2]; Day 18, MTX 0.5 mg/kg, AP 200 mg/kg", "result": 64.13, "unit": "%"},
      {"measurement": "Compression pain resistance vs CIA + vehicle (Mean ± SD)", "setting": "CIA rats [2]; [8]", "result": 69.35, "unit": "%"},
      {"measurement": "Compression pain resistance vs CIA + vehicle (Mean ± SD)", "setting": "CIA rats [2]; MTX 75 μg/kg, AMK 200 mg/kg oral, Boost", "result": "0.27 ± 2.16", "unit": "%"},
      {"measurement": "Compression pain resistance vs CIA + vehicle (Mean ± SD)", "setting": "CIA rats [2]; MTX 75 μg/kg, AMK 200 mg/kg oral, Day 12", "result": 6.8, "unit": "%"},
      {"measurement": "Compression pain resistance vs CIA + vehicle (Mean ± SD)", "setting": "CIA rats [2]; MTX 75 μg/kg, AMK 200 mg/kg oral, Day 12, listed as MTX", "result": "6.75 ± 4.56", "unit": "%"},
      {"measurement": "Compression pain resistance vs CIA + vehicle (Mean ± SD)", "setting": "CIA rats [2]; MTX 75 μg/kg, AMK 200 mg/kg oral, Day 14", "result": 13.5, "unit": "%"},
      {"measurement": "Compression pain resistance vs CIA + vehicle (Mean ± SD)", "setting": "CIA rats [2]; MTX 75 μg/kg, AMK 200 mg/kg oral, Day 14, listed as MTX", "result": "13.48 ± 15.98", "unit": "%"},
      {"measurement": "Compression pain resistance vs CIA + vehicle (Mean ± SD)", "setting": "CIA rats [2]; MTX 75 μg/kg, AMK 200 mg/kg oral, Day 16", "result": 28.2, "unit": "%"},
      {"measurement": "Compression pain resistance vs CIA + vehicle (Mean ± SD)", "setting": "CIA rats [2]; MTX 75 μg/kg, AMK 200 mg/kg oral, Day 16, listed as MTX", "result": "28.18 ± 12.53", "unit": "%"},
      {"measurement": "Compression pain resistance vs CIA + vehicle (Mean ± SD)", "setting": "CIA rats [2]; MTX 75 μg/kg, AMK 200 mg/kg oral, Day 19", "result": 40.8, "unit": "%"},
      {"measurement": "Compression pain resistance vs CIA + vehicle (Mean ± SD)", "setting": "CIA rats [2]; MTX 75 μg/kg, AMK 200 mg/kg oral, Day 19, listed as MTX", "result": 40.77, "unit": "%"},
      {"measurement": "Compression pain resistance vs CIA + vehicle (Mean ± SD)", "setting": "CIA rats [2]; MTX 75 μg/kg, AMK 200 mg/kg oral, Day 21", "result": 43.9, "unit": "%"},
      {"measurement": "Compression pain resistance vs CIA + vehicle (Mean ± SD)", "setting": "CIA rats [2]; MTX 75 μg/kg, AMK 200 mg/kg oral, Day 21, listed as MTX", "result": "43.88 ± 5.97^¥ %"},
      {"measurement": "Compression pain resistance vs CIA + vehicle (Mean ± SD)", "setting": "CIA rats [2]; MTX 75 μg/kg, AMK 200 mg/kg oral, Prime", "result": "−0.12 ± 1.39", "unit": "%"},
      {"measurement": "Compression pain resistance vs CIA + vehicle (Mean ± SD)", "setting": "CIA rats [2]; Prime, MTX 0.5 mg/kg, AP 200 mg/kg", "result": "−1.20", "unit": "%"}
    ]}
  ]
}
